Article PMC9032385, “A2A Adenosine Receptor Antagonists: Are Triazolotriazine and Purine Scaffolds Interchangeable?” (Molecules, 2022)

Assays:
[1] = tested on: catalepsy induced by haloperidol; parameters: method as in PMID 35184706; conditions: in vivo model of Parkinson's disease; cited from earlier work
[2] = tested on: BV-2 murine microglial cells; assay: RT-PCR expression of inflammatory mediators in LPS-activated BV-2 cells; assay type: cell-based; conditions: 10 nM for 24 h, then 100 ng/mL LPS 24 h
Method: BV-2 cells were treated with 13 or ANR 94 (10 nM) and activated with 100 ng/mL LPS for 24 h. Total RNA was isolated, and proinflammatory cytokine and enzyme expressions were measured using RT-PCR (Figure 5).
Cell Cultures and Treatments: BV-2 murine microglial cells (a gift from Prof. Elisabetta Blasi of the University of Modena and Reggio Emilia, Modena, Italy) were maintained at 37 °C and 5% CO2 in a humidified incubator and grown in DMEM supplemented with 10% (v/v) low-endotoxin fetal bovine serum (Euroclone—Milan, Italy), 2 mM L-glutamine, 50 U/mL penicillin, and 50 μg/mL streptomycin (Sigma-Aldrich–Merck, Milan, Italy). Cells were seeded at 50,000 cells/mL in 96-well tissue culture plates for the viability assay, in 6-well tissue culture plates for the Griess assay and RT-PCR assay. BV-2 cells were treated for 24 h with ANR 94 or 13 at different concentrations and then exposed to LPS (100 ng/mL; Sigma-Aldrich–Merck) for a further 24 h.
Real-Time Polymerase Chain Reaction (PCR): At the end of the experiments, total RNA was extracted by BV-2 cells using RNeasy Mini Kit (QIAGEN GmbH, Hilden, Germany). RNA concentraion and quality were measured on a NanoVue Spectrophotometer (GE Healthcare, Milano, Italy). iScript cDNA Synthesis Kit (Bio-Rad, Hercules, CA, USA) was used to synthesize cDNA starting from the extracted RNA, following the supplier’s instructions. PCR was performed by adding 2.5 μL (12.5 ng) of cDNA, 5 μL SsoAdvanced Universal SYBR Green Supermix (Bio-Rad), and 0.5 μL (500 nM) of each primer (Table 2) to a PCR tube. cDNA amplification was started at 95 °C for 30 s to activate the polymerase, followed by 40 cycles of 5 s at 95 °C and 30 s at 60 °C. Normalized expression levels were calculated relative to the control cells according to the 2^−ΔΔCT method.

[3] = tested on: rats sensitized to L-DOPA; parameters: method as in PMID 35184706; conditions: cited from earlier work
human recombinant A1AR = biological target: T1, human recombinant A1AR (Homo sapiens, UniProt P30542); conditions: reference compound ANR 94, reference printed at end of table row; cited from earlier work
T1 construct: expressed in transfected cells; membrane preparation
T1 sequence (P30542 1-326): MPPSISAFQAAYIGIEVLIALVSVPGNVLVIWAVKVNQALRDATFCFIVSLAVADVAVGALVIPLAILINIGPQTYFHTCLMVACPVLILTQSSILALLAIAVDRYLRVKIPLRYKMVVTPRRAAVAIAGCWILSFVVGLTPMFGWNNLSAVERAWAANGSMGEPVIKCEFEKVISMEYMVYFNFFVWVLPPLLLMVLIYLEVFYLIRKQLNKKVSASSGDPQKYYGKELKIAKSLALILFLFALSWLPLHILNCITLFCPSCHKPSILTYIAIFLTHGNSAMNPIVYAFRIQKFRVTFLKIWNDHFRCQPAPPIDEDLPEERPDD

murine model of PD = tested on: murine model of PD; parameters: method as in PMID 19951715; conditions: cited from earlier work
[4] = tested on: neuronal injury model induced by 6-hydroxydopamine; parameters: method as in PMID 35184706; conditions: cited from earlier work
human recombinant A3AR = biological target: T2, human recombinant A3AR (Homo sapiens, UniProt P0DMS8); conditions: reference compound ANR 94; cited from earlier work
T2 construct: expressed in transfected cells; membrane preparation
T2 sequence (P0DMS8 1-318): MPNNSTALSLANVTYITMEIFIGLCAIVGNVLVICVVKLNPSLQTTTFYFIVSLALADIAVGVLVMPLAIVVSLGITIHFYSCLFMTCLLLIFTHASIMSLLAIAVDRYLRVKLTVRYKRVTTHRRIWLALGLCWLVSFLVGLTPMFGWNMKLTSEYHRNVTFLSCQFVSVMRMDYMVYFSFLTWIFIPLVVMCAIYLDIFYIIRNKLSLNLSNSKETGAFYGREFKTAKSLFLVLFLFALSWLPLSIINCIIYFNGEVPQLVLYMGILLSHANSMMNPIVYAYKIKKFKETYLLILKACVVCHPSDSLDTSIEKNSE

[5] = tested on: tremor induced by tacrine; parameters: method as in PMID 35184706; conditions: cited from earlier work
human recombinant A2AAR = biological target: T3, human recombinant A2AAR (Homo sapiens, UniProt P29274); assay: Radioligand binding at human A2AAR ([3H]NECA displacement, CHO cell membranes); conditions: ratio of Ki values
T3 construct: expressed in transfected cells; membrane preparation
T3 sequence (P29274 whole entry): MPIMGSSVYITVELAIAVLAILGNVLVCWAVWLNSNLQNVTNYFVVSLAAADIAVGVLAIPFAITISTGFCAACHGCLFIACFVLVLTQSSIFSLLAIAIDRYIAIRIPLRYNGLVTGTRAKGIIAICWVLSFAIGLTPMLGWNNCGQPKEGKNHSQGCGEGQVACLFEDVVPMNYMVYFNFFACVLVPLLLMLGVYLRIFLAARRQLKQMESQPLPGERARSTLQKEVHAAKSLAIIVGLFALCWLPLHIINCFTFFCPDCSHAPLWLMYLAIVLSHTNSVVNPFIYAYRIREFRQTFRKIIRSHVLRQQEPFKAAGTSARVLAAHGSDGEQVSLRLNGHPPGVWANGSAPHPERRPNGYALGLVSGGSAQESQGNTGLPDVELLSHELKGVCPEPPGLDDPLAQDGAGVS
Method: Most of the compounds were also evaluated at A2BARs in a functional study using the GloSensor cAMP assay. […] In the case of A2BARs, Ki-values were calculated from IC50-values determined by the inhibition of NECA-stimulated adenylyl cyclase activity.
Preparation of membranes: Cell membranes for binding assays were prepared mechanically detaching the cells from the petri and suspending them in a cold hypotonic buffer (5 mM Tris/HCl, 2 mM EDTA, pH 7.4). The cell suspension was homogenized (Ultra-Turrax, 2 × 15 s at maximum speed) and the homogenate centrifuged for 10 min (4 °C) to 1000× g. […] The amount of the protein suspension was determined according to the […] using the BCA Protein Assay Kit (Pierce), frozen in liquid nitrogen, and stored at −80 °C.
Binding assays: The dissociation constants of the radioligand (KD) were calculated through saturation assays, while the dissociation constants of the compounds under study (Ki) were determined by competition experiments. All binding data were calculated by nonlinear regression curves using the software GraphPad Prism 5 (GraphPad Software, San Diego, CA, USA). The increasing concentrations of the radioligand saturation binding ([^3H]-CCPA for the A1 receptor subtype, [^3H]-NECA for the A2A receptor subtype, and [^3H]-HEMADO for the A3 receptor) subtype were incubated in a total volume of 250 μL containing 0.2 U/mL of Ado deaminase (ADA) and 12 micrograms of membrane proteins in the specific buffer. In competition experiments for the A1 receptor subtype, each compound was added at increasing concentrations, to the well containing 1 nM of [^3H]-CCPA, to a final volume of 200 μL. The samples were left to incubate for 3 h at room temperature, filtered in a filter 96-well plate (UniFilter GF/C, Perkin-Elmer Life and Analytical Science, Boston, MA) using the FilterMate Cell Harvester (Perkin-Elmer), and washed 3 times with cold distilled water. After drying the filter plate at 40 °C for 30′, they 20 μL of scintillating liquid (Microscint-20, Perkin-Elmer) was added to each well, and then the radioactivity was quantized with the MicroBeta2 Plate Counter (Perkin-Elmer). The conditions for binding experiments at A2A and A3 receptor subtypes were essentially the same as for the A1AR using [^3H]-NECA (N-ethylcarboxyamideAdo) at a concentration of 10 nM and [^3H]-HEMADO (2-(1-hexyne)-N^6-methylAdo) at a concentration of 1 nM as radioligands, respectively. The samples were incubated with 12 micrograms of protein for 3 h at room temperature and filtered as described above.
The non-specific binding was determined in the presence of 1 mM theophylline for the A1AR, or 100 µM R-PIA (N^6-(1-methyl-2-phenylethyl)Ado) for the A2A and A3 receptors.

A2BAR = biological target: T4, A2BAR (Homo sapiens, UniProt P29275); conditions: reference compound ANR 94, reference printed at end of table row; cited from earlier work
T4 construct: expressed in transfected cells
T4 sequence (P29275 1-332): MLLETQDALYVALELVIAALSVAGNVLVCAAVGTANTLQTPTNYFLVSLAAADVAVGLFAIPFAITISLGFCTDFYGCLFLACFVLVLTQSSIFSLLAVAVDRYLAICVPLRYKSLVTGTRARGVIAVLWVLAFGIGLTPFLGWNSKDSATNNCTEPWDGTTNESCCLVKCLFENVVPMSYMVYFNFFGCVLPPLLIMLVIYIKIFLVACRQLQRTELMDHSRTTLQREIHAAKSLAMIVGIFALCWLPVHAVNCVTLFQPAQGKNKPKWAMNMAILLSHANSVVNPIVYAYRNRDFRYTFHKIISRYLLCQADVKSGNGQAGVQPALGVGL

Structure (SMILES): CCOc1nc2c(N)ncnc2n1CC [ANR 94, 9-ethyl-8-ethoxyadenine]
- effect on catalepsy induced by haloperidol [1]: reversed the catalepsy induced by haloperidol
- COX-2 mRNA expression vs LPS [2]: only able to significantly reduce the expression of IL-1β
- IL-1β mRNA expression vs LPS [2]: significantly reduce the expression of IL-1β
- IL-6 mRNA expression vs LPS [2]: only able to significantly reduce the expression of IL-1β
- iNOS mRNA expression vs LPS [2]: only able to significantly reduce the expression of IL-1β
- contralateral turning behavior [3]: induced contralateral turning behavior
- Ki (human recombinant A1AR): 2.4 µM
- microglia activation (murine model of PD): ability to reduce microglia activation
- motor deficit [4]: reducing the motor deficit
- Ki (human recombinant A3AR): 21 µM
- intensity of the tremor induced by tacrine [5]: good efficacy in lowering the intensity of the tremor
- selectivity A1/A2A (human recombinant A2AAR): 52
- selectivity A2B/A2A (human recombinant A2AAR): > 652
- selectivity A3/A2A (human recombinant A2AAR): 457
- Ki (A2BAR): > 30 µM
